# Measured values reported in US20160262390A1, “FIELD APPLICATION OF SUGARS TO INCREASE CROP YIELD” (Minn-Dak Farmers Cooperative, priority 2015, published 2016).
# Experiments:
# corn [1] = assay: Pre-planting sugar application on corn, Foxhome; format: in vivo; conditions: for Yield / Yield Increase Compared to Check Average: MN
# Description: (§1) The field trials were conducted simultaneously in two different planting locations for each of the crops. One location was near the community of Foxhome in Wilkin County, Minnesota (hereafter referred to as “Foxhome”) while the second location was near the community of Hickson in Cass County, North Dakota (hereafter referred to as “Hickson”). The Foxhome and Hickson locations are on opposite sides of the Red River along the border of Minnesota and North Dakota and separated by a distance exceeding 40 miles. Generally, the Foxhome location has heavier clay loam soil conditions while Hickson has sandy loam soil conditions.
# (§2) At each of the Foxhome and Hickson locations, a total of thirty two (32) treatments were conducted for each crop (sugarbeets, soybeans, corn, wheat). Each treatment was replicated four times arranged in a Randomized Complete Block (RCB) Design in the same field. Each replication consisted of a plot measuring twenty five (25) feet in length and eleven (11) feet in width. In selecting the particular seed types for evaluation, popular commercial varieties to the region were utilized. For the row crops (sugarbeets, soybeans, corn) each replication included a width of six (6) rows with twenty two (22) inch row spacing and having a row length of twenty five (25) feet. The wheat was planted in accordance with standard commercial practices. To reduce/eliminate any treatment impacts between adjacent plots for the crops, only the four (4) interior rows of each plot were treated and evaluated for row crops, while for wheat, only the interior 7.33 feet of each plot were treated and evaluated. With the exception of the treatment program applied to the individual plots, which will be discussed below, conventional commercial growing practices for each planting location were otherwise followed during the field trials. While the individual plots at the same location, Hickson or Foxhome, experienced essentially the same growing conditions throughout the season, there were various differences associated with localized precipitation, general growing conditions, soil classification and the like, which contributed to performance differences between the Hickson and Foxhome locations.
# (§3) The treatment regimen at each location for each of the tested crops included two (2) untreated treatments (Treatments 31 and 32) in which no sugar was applied and constitute the control elements. […] Six (6) treatments (Treatments 13-18) included the liquid application of high fructose corn syrup (hereafter “HFCS”) at varying rates. Six treatments (Treatments 19-24) included the liquid application of dextrose (hereafter “LIQDEX”) at varying rates. Six (6) treatments (Treatments 25-30) included the application of powdered cellulose (hereafter “POWCEL”) at varying rates. For the sugar applied in a solid form, granulated or powdered, field application was conducted via conventional broadcast spreading. For the sugar applied in a liquid form, a liquid concentrate was mixed and diluted with water in a tank and a conventional sprayer was configured such that the liquid was sprayed so as to have the same sugar equivalent (measured in pounds/per acre) as the sugar in solid form. Regardless of whether the sugar was applied as a solid or liquid, the sugar was applied directly onto the soil before spring tillage, lightly worked into the ground and followed by planting of the crop seed in the treated ground. A summary of application rates for each plot treatments are contained in Table 7 below and were used consistently with each of the crops (sugarbeets, soybeans, corn, wheat).
# (§4) To test the impact of pre-planting application rates and sugar source on corn, identical field trials using Peterson Farms brand corn seed were conducted at the Foxhome and Hickson locations. Planting of the corn seed and harvest of the corn were conducted on the same dates so as to have essentially the same growing season. […]
# soybeans = assay: Pre-planting sugar application on soybeans, Hickson; format: in vivo, soybean; conditions: for Yield / Yield Increase Compared to Check Average: ND
# Description: as §1, §2, §3
# To test the impact of pre-planting application rates and sugar source on soybeans, identical field trials using Syngenta brand soybean seed were conducted at the Foxhome and Hickson locations. Planting of the soybean seed and harvest of the soybeans were conducted on approximately the same dates so as to have essentially the same growing season. […]
# corn [2] = assay: Pre-planting sugar application on corn, Hickson; format: in vivo; conditions: for Yield / Yield Increase Compared to Check Average: ND
# Description: as §1, §2, §3, §4
# sugarbeets = assay: Pre-planting sugar application on sugarbeets, Hickson; format: in vivo, sugarbeet; conditions: for Recoverable Sugar Yield / Recoverable Sugar Yield Increase Compared to Check Average / Sugarbeet Yield: ND
# Description: as §1, §2, §3
# To test the impact of pre-planting application rates and sugar source on sugarbeets, identical field trials using Crystal® brand ACH 260 sugarbeet seed were conducted at the Foxhome and Hickson locations. Planting of the sugarbeet seed and harvest of the sugarbeets were conducted on as close to the same dates as practical so as to have essentially the same length growing season. […]
# [3] = tested on: microflora that are present in the soil; assay: Solvita Soil CO2-Burst test of pre-emergent soil samples, soybean trial in Hickson
# Description: In an attempt to quantify this boost, soil samples were taken during some of the previously discussed trials. These samples were tested using a standard Solvita Soil CO2-Burst Test Kit to generate measurements associated with CO2 respiration which can be used as an indicator of active soil carbon, soil microbial biomass and the potential for nutrient release beneficial to crop production. Generally, the higher the measured levels of CO2, the more advantageous the soil is for crop production.
# The results of the CO2-Burst Testing are summarized in Table 17 below (using the replication designations from Table 7): […]
# [4] = six rates (25-250 pounds/Acre) per sugar, thirty in all
compound,measurement,setting,value
"OC[C@H]1O[C@@](CO)(O[C@H]2O[C@H](CO)[C@@H](O)[C@H](O)[C@H]2O)[C@@H](O)[C@@H]1O [LIQSUC, sucrose]",Yield,corn [1]; pre-planting 25 pounds/Acre,264.82 Bushels/Acre
same,Yield Increase Compared to Check Average,corn [1]; pre-planting 25 pounds/Acre,−0.35%
same,Yield,corn [1]; pre-planting 50 pounds/Acre,274.43 Bushels/Acre
same,Yield Increase Compared to Check Average,corn [1]; pre-planting 50 pounds/Acre,3.26%
same,Yield,corn [1]; pre-planting 100 pounds/Acre,264.79 Bushels/Acre
same,Yield Increase Compared to Check Average,corn [1]; pre-planting 100 pounds/Acre,−0.36%
same,Yield,corn [1]; pre-planting 150 pounds/Acre,270.66 Bushels/Acre
same,Yield Increase Compared to Check Average,corn [1]; pre-planting 150 pounds/Acre,1.84%
same,Yield,corn [1]; pre-planting 200 pounds/Acre,271.85 Bushels/Acre
same,Yield Increase Compared to Check Average,corn [1]; pre-planting 200 pounds/Acre,2.29%
same,Yield,corn [1]; pre-planting 250 pounds/Acre,263.78 Bushels/Acre
same,Yield Increase Compared to Check Average,corn [1]; pre-planting 250 pounds/Acre,−0.75%
same,number of treatments showing yield improvement compared to check average,corn [1]; [4],three of the six
same,Yield,soybeans; pre-planting 25 pounds/Acre,61.90 Bushels/Acre
same,Yield Increase Compared to Check Average,soybeans; pre-planting 25 pounds/Acre,0.24%
same,Yield,soybeans; pre-planting 50 pounds/Acre,61.87 Bushels/Acre
same,Yield Increase Compared to Check Average,soybeans; pre-planting 50 pounds/Acre,0.19%
same,Yield,soybeans; pre-planting 100 pounds/Acre,59.52 Bushels/Acre
same,Yield Increase Compared to Check Average,soybeans; pre-planting 100 pounds/Acre,−3.61%
same,Yield,soybeans; pre-planting 150 pounds/Acre,59.71 Bushels/Acre
same,Yield Increase Compared to Check Average,soybeans; pre-planting 150 pounds/Acre,−3.30%
same,Yield,soybeans; pre-planting 200 pounds/Acre,61.36 Bushels/Acre
same,Yield Increase Compared to Check Average,soybeans; pre-planting 200 pounds/Acre,−0.63%
same,Yield,soybeans; pre-planting 250 pounds/Acre,61.03 Bushels/Acre
same,Yield Increase Compared to Check Average,soybeans; pre-planting 250 pounds/Acre,−1.17%
same,number of treatments showing negative yield benefits compared to check average,soybeans; six rates per sugar,four of the six
same,Yield,corn [2]; pre-planting 25 pounds/Acre,163.69 Bushels/Acre
same,Yield Increase Compared to Check Average,corn [2]; pre-planting 25 pounds/Acre,5.93%
same,Yield,corn [2]; pre-planting 50 pounds/Acre,162.57 Bushels/Acre
same,Yield Increase Compared to Check Average,corn [2]; pre-planting 50 pounds/Acre,5.21%
same,Yield,corn [2]; pre-planting 100 pounds/Acre,160.94 Bushels/Acre
same,Yield Increase Compared to Check Average,corn [2]; pre-planting 100 pounds/Acre,4.15%
same,Yield,corn [2]; pre-planting 150 pounds/Acre,165.35 Bushels/Acre
same,Yield Increase Compared to Check Average,corn [2]; pre-planting 150 pounds/Acre,7.01%
same,Yield,corn [2]; pre-planting 200 pounds/Acre,164.24 Bushels/Acre
same,Yield Increase Compared to Check Average,corn [2]; pre-planting 200 pounds/Acre,6.29%
same,Yield,corn [2]; pre-planting 250 pounds/Acre,166.53 Bushels/Acre
same,Yield Increase Compared to Check Average,corn [2]; pre-planting 250 pounds/Acre,7.77%
same,number of treatments showing yield improvement compared to check average,corn [2]; [4],each of their six
same,Recoverable Sugar Yield,sugarbeets; pre-planting 25 pounds/Acre,9363 Pounds/Acre
same,Recoverable Sugar Yield Increase Compared to Check Average,sugarbeets; pre-planting 25 pounds/Acre,−4.55%
same,Sugarbeet Yield,sugarbeets; pre-planting 25 pounds/Acre,28.83 Tons/Acre
same,Recoverable Sugar Yield,sugarbeets; pre-planting 50 pounds/Acre,10217 Pounds/Acre
same,Recoverable Sugar Yield Increase Compared to Check Average,sugarbeets; pre-planting 50 pounds/Acre,4.16%
same,Sugarbeet Yield,sugarbeets; pre-planting 50 pounds/Acre,32.05 Tons/Acre
same,Recoverable Sugar Yield,sugarbeets; pre-planting 100 pounds/Acre,9216 Pounds/Acre
same,Recoverable Sugar Yield Increase Compared to Check Average,sugarbeets; pre-planting 100 pounds/Acre,−6.05%
same,Sugarbeet Yield,sugarbeets; pre-planting 100 pounds/Acre,28.83 Tons/Acre
same,Recoverable Sugar Yield,sugarbeets; pre-planting 150 pounds/Acre,9089 Pounds/Acre
same,Recoverable Sugar Yield Increase Compared to Check Average,sugarbeets; pre-planting 150 pounds/Acre,−7.34%
same,Sugarbeet Yield,sugarbeets; pre-planting 150 pounds/Acre,31.95 Tons/Acre
same,Recoverable Sugar Yield,sugarbeets; pre-planting 200 pounds/Acre,9998 Pounds/Acre
same,Recoverable Sugar Yield Increase Compared to Check Average,sugarbeets; pre-planting 200 pounds/Acre,1.93%
same,Sugarbeet Yield,sugarbeets; pre-planting 200 pounds/Acre,32.35 Tons/Acre
same,Recoverable Sugar Yield,sugarbeets; pre-planting 250 pounds/Acre,9627 Pounds/Acre
same,Recoverable Sugar Yield Increase Compared to Check Average,sugarbeets; pre-planting 250 pounds/Acre,−1.86%
same,Sugarbeet Yield,sugarbeets; pre-planting 250 pounds/Acre,32.29 Tons/Acre
same,number of treatments showing negative yield benefits compared to check average,sugarbeets; six rates per sugar,four of the six
same,CO2 Burst ppm,[3]; sugar amount 50 pounds/acre,49 ppm
same,CO2 Increase as Compared to Check Average,[3]; sugar amount 50 pounds/acre,7.69%
same,CO2 Burst ppm,[3]; sugar amount 150 pounds/acre,45 ppm
same,CO2 Increase as Compared to Check Average,[3]; sugar amount 150 pounds/acre,−1.10%
same,CO2 Burst ppm,[3]; sugar amount 250 pounds/acre,55 ppm
same,CO2 Increase as Compared to Check Average,[3]; sugar amount 250 pounds/acre,20.88%
